Here are results for four molecules from patent publication US4305950A, “Pharmaceutical agent containing amino derivatives of 2-methyl-5-(2-hydroxystyryl)-1,3,4-thiadiazole” (BASF Aktiengesellschaft, priority 1978, dated 1981).

One data set concerns the target T1, cardiac beta-1-receptors (Felis catus, UniProt Q9TST6).
T1 construct: in narcotized cats (weight 2-4 kg); from tissue; host or cells: heart of the living narcotized cat (in vivo)
The data set can be described thus: Beta-sympatholytic action: inhibition of isoproterenol-induced tachycardia in narcotized cats. In kind it is in vivo. As to conditions: for Beta-sympatholytic action, R.A. (relative activity): Propranolol = 1.00, cats, intravenous; for factor by which doses blocking cardiac beta-1-receptors are lower than those of propranolol: compared to propranolol. From the text: The following test methods were used:
Beta-sympatholytic agents inhibit such tachycardia.
^(1) Inhibition of isoproterenolinduced tachycardia in cats under
hexobarbital narcosis. Intravenous administration.
^(2) Dose (mg/kg) which inhibits the isoproterenolinduced tachycardia

For another data set, the system named is female NMRI mice. In kind it is in vivo. The conditions noted are these: for Therapeutic range, relative: mouse, in vivo.

T1 sequence (Q9TST6 whole entry): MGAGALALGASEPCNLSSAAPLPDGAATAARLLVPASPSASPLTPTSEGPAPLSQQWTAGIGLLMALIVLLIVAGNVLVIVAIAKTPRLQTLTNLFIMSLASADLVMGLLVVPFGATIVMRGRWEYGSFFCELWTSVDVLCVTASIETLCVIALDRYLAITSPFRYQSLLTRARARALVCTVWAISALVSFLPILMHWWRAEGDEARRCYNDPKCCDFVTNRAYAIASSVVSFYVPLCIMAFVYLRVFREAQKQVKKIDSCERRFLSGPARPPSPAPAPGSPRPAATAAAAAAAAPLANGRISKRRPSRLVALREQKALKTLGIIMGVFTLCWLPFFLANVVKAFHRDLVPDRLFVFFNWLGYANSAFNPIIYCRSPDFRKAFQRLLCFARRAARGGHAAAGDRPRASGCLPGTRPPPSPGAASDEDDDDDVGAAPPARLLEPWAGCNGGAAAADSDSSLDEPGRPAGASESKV

As for `Cc1nnc(C=Cc2ccccc2OCC(O)CNC(C)C)s1` (stereo not shown) [Example 1, 2-Methyl-5-[2-(2-hydroxy-3-isopropylamino-propoxy)-styryl]-1,3,4-thiadiazol], the “Beta-sympatholytic action, R.A. (relative activity)” value at cardiac beta-1-receptors came to 14.10. Further, in the data set with female NMRI mice, the “Therapeutic range, relative” value is listed as 10.84.

With `Cc1nnc(C=Cc2ccccc2OCC(O)CNC2CC2)s1` (stereo not shown) [Example 2, 2-Methyl-5-[2-(2-hydroxy-3-cyclopropylamino-propoxy)-styryl]-1,3,4-thiadiazole], at cardiac beta-1-receptors, the “Beta-sympatholytic action, R.A. (relative activity)” value is 11.75 and the “factor by which doses blocking cardiac beta-1-receptors are lower than those of propranolol” value is 12. Further, in the data set on female NMRI mice, the “factor by which the therapeutic range is increased, compared to propranolol” value stood at 7.6 and the “Therapeutic range, relative” value amounted to 7.55.

On to `Cc1nnc(C=Cc2ccccc2OCC(O)CNC(C)(C)C)s1` (stereo not shown) [Example 3, 2-Methyl-5-[2-(2-hydroxy-3-tert.-butylamino-propoxy)-styryl]-1,3,4-thiadiazole], for which, on cardiac beta-1-receptors, the “Beta-sympatholytic action, R.A. (relative activity)” value is recorded as 25.22 and the “factor by which doses blocking cardiac beta-1-receptors are lower than those of propranolol” value is given as 25. In addition, the ED50 on cardiac beta-1-receptors (cat, cats under hexobarbital narcosis, intravenous administration, read-out: Beta-sympatholytic action, ED 50% (dose which inhibits the isoproterenol-induced tachycardia by 50%)) amounted to 5.59 µg/kg. Further, the “Therapeutic range, relative” value in the data set with female NMRI mice was 13.73.

As to `C#CC(C)NCC(O)COc1ccccc1C=Cc1nnc(C)s1` (stereo not shown) [Example 7, 2-Methyl-5-[2-(2-hydroxy-3-(but-1-ynyl-3-amino)-propoxy)-styryl]-1,3,4-thiadiazole], the “Beta-sympatholytic action, R.A. (relative activity)” value at cardiac beta-1-receptors was determined as 12.70. Moreover, in the data set with female NMRI mice, the “factor by which the therapeutic range is increased, compared to propranolol” value is recorded as 30.7 and the “Therapeutic range, relative” value came to 30.68.
